From US20010054579A1, “METHOD OF SEPARATING DIFFERENT CHEMICALS IN A SAMPLE” (priority 1997, published 2001) come the findings set out here.

What all share (format): physicochemical
A short description of data set [1]: Reversed-phase liquid chromatography retention factor (log k) on octyl bonded phase. To be noted: C8 column. From the text:
(§1) The inertness and the chemical stability of the synthesized hexyl-phenyl bonded silica gel were studied by looking at the retention factors and peak shapes of pyridine, benzoic acid, 8-hydroxyquinoline, and naphthalene disclosed in T. Hanai, Encyclopedia of Analytical Science (1995), Academic Press, London, p. […] which is hereby incorporated herein by reference. The retention factor, in terms of measured parameters, is “k=(tR−tO)/tO”: where tR is retention time of the measured peak; and to is retention time of non-retained component.
(§2) The retention capacities of alkyl-phenyl bonded silica gels were compared from the retention factors for alkylbenzenes and polycyclic aromatic hydrocarbons (PAH).
(§3) […] The log k values were used for the analysis of hydrophobicity of bonded phases using van der Waals volumes of analytes as the standard.
(§4) The liquid chromatograph was a model HP1090 from Hewlett-Packard (Palo Alto, Calif. USA), and the chemically-bonded silica gel columns, —C18, —C8 and —C5, —C6Ph, —C3Ph, 15 cm×4.6 mm I.D., were from Phenomenex Inc. (Torrance, Calif. USA). Chemicals used were from Aldrich and ChemService. HPLC grade acetonitrile and water were from Fisher Scientific (Tustin, Calif. USA).

Data set [2] can be described thus: Reversed-phase liquid chromatography retention factor (log k) on hexyl-phenyl bonded phase. To be noted: C6Ph column.
Excerpt: as §1, §2, §3, §4

A short description of data set [3]: Reversed-phase liquid chromatography retention factor (log k) on propyl-phenyl bonded phase. To be noted: C3Ph column.
Excerpt: as §1, §2, §3, §4

Data set [4] can be described thus: Reversed-phase liquid chromatography retention factor (log k) on octadecyl bonded phase. Particulars: C18 column.
Excerpt: as §1, §2, §3, §4

Data set [5] can be described thus: Reversed-phase liquid chromatography retention factor (log k) on pentyl bonded phase. To be noted: C5 column.
Excerpt: as §1, §2, §3, §4

Where [6] appears, read: aqueous 80% acetonitrile at 40° C.

`c1ccc2c(c1)ccc1ccccc12` [Phenanthrene]: the “log k in 70% CH3CN, C8” value in data set [1] is given as 0.660. Also, in data set [2], the “log k in 70% CH3CN, C6Ph” value is recorded as 0.655. In addition, in data set [3], the “log k in 70% CH3CN, C3Ph” value was 0.468. Besides, in data set [4], the “log k in 70% CH3CN, C18” value was determined as 0.854. Moreover, the “log k in 70% CH3CN, C5” value in data set [5] worked out at 0.538.

As for `CCCc1ccccc1` [Propylbenzene], the “log k in 70% CH3CN, C8” value in data set [1] turned out to be 0.644. In data set [1] (setting [6]), the “log k in 80% CH3CN, C8” value came out at 0.442. Further, in data set [2], the “log k in 70% CH3CN, C6Ph” value came to 0.538. Further, the “log k in 80% CH3CN, C6Ph” value in data set [2] (setting [6]) is on record as 0.303. Besides, in data set [3], the “log k in 70% CH3CN, C3Ph” value amounted to 0.449. In data set [3] (setting [6]), the “log k in 80% CH3CN, C3Ph” value was found to be 0.196. Further, in data set [4], the “log k in 70% CH3CN, C18” value came out at 0.800. Also, the “log k in 80% CH3CN, C18” value in data set [4] (setting [6]) came to 0.548. Besides, the “log k in 70% CH3CN, C5” value in data set [5] is given as 0.537. For the same compound, in data set [5] (setting [6]), the “log k in 80% CH3CN, C5” value is 0.362.

Take `c1cc2ccc3cccc4ccc(c1)c2c34` [Pyrene]: the “log k in 70% CH3CN, C8” value in data set [1] turned out to be 0.777. In addition, the “log k in 70% CH3CN, C6Ph” value in data set [2] was 0.778. In addition, the “log k in 70% CH3CN, C3Ph” value in data set [3] is listed as 0.553. The “log k in 70% CH3CN, C18” value in data set [4] came out at 1.038. The “log k in 70% CH3CN, C5” value in data set [5] turned out to be 0.614.
